Values of other authors in patent US4039549A, “Olefinic derivatives of amino acids” (Merrell Toraude et Compagnie, priority 1976, dated 1977).

Tests used:
[1] = test system: γ-aminobutyric acid transaminase; settings: literature
[2] = test system: brain levels of γ-aminobutyric acid; settings: reversible effect; literature

Structure (SMILES)	inhibition of γ-aminobutyric acid transaminase (mode) [1]	duration of effect (elevation of brain γ-aminobutyric acid levels) [2]
NCC#CC(=O)O [4-aminotetrolic acid]	competitive reversible inhibitor	
CCCC(CCC)C(=O)O [n-dipropylacetate]	competitively inhibiting	about 2 hours
